Test results published in patent US10804000B2, “High efficiency continuous-flow production of radioisotopes” (priority 2016, dated 2020).

Experiments:
[1] = Pre-irradiation solubility tests of lanthanide complexes in the water capture matrix (neutron activation analysis of washes); format: physicochemical; conditions: for % Activity in wash 1: first pre-irradiation wash with 0.5 mL ultra-pure H2O, 153Sm at 103 keV, 166Ho at 81 keV; for % Activity in wash 1 / % Activity in wash 2: indicates solubility in capture matrix; for solubility in water: in words, from pre-irradiation washes; for % Activity in wash 2: second pre-irradiation wash with H2O
Procedure: The solubility of the lanthanide complexes in the water capture matrix was determined by mixing a few milligrams of the lanthanide-containing target solid thoroughly with 0.5 mL of ultra-pure H2O then separating the solution from the solid utilizing centrifugal filter tubes (EMD Millipore). A second wash of the solid was obtained using the same procedure. The solid and the washes were submitted for neutron activation analysis in order to determine the solubility of the lanthanide containing target in H2O.
Post irradiation, the samples were left to cool for a predetermined amount of time to allow any short-lived radioisotopes to decay, before being transferred to the laboratory for treatment and analysis. The capture matrix was filtered and separated from the solid in order to separate any recoiled radiolanthanide. The solid residue and capture matrix were collected for analysis of the activity of the radiolanthanide. The pre-irradiation solubility test washes along with standards were also prepared for analysis. The samples were analyzed for radiolanthanide activity using a High Purity Germanium detector (HPGe) at the representative gamma energy of the radiolanthanide of interest.
All the samples for a particular compound were irradiated as a group, along with standards for calibration purposes and direct comparisons of activities. In samples that were not treated post irradiation by separation (e.g. as in the case of target and capture matrix) the activity of the radiolanthanide is directly related to the total concentration of the corresponding lanthanide. The count rate measured in each sample was normalized to a single point in time to account for decay during measurements. Both pre-irradiation washes were collected to give an indication of the solubility of the lanthanide complex in the capture matrix (H2O). The second wash was obtained to determine if the lanthanide activity detected in the first wash was actually due to solubility of the lanthanide containing target or due to factors such as impurities or the presence of uncomplexed lanthanide that came off in the first wash. […] Radiolanthanides that recoiled out but reformed bonds with the solid compound would appear as retained as well. […] Activity in the capture matrix may also reflect dissolution of the target matrix rather than recoil.

[2] = Irradiation of ammonium molybdate phosphate powder, 99Mo activity in washes, target and capture matrix
Text: Wash 1, Wash 2, and the irradiated molybdenum target were all analyzed for ^99Mo activity using gamma spectroscopy at the prominent ^99Mo peak of 141 KeV.
Post irradiation the capture matrix was separated from the irradiation target and washed an additional time to determine post irradiation solubility (wash 1).

Substance | % Activity in wash 1 [1] [%] | solubility in water [1] | % Activity in wash 2 [1] [%] | further results
Holmium 4-aminobenzoate [Compound 6] | 7.0 ± 1.6 | soluble in water | 7.7 ± 1.7 | –
ammonium molybdate phosphate [Sample 2] | – | – | – | % Activity in wash 1 ([2]; 99Mo, sample 2: irradiated in contact with water capture matrix, additional wash post irradiation): 1.3%
Holmium 8-hydroxyquinolinate [Compound 5] | – | low solubility in the first wash | – | –
ammonium molybdate phosphate [Sample 1] | – | – | – | % Activity in wash 1 ([2]; 99Mo, sample 1: powder irradiated 15 min at 8×10^11 n cm^−2 s^−1, contacted with water post irradiation): <1%; % Activity in wash 2 ([2]; 99Mo, sample 1: powder irradiated, contacted with water post irradiation): <1%; 99Mo activity detected in the capture matrix ([2]; sample 1, water contacted post irradiation): less than 1%
Samarium 4-aminobenzoate [Compound 2] | 27.3 ± 3.0 | soluble in water | 26.8 ± 2.9 | –
Samarium 8-hydroxyquinolinate [Compound 4] | – | low | – | –
